Reference: publication PMC6333442, “Conserved allosteric pathways for activation of TRPV3 revealed through engineering vanilloid-sensitivity” (eLife, 2019)

Legend:
[1] = molecular target: T1, mouse TRPV3-4M (F522S/L557M/A560T/Q580E) (Mus musculus, UniProt Q8K424, A560T/F522S/L557M/Q580E); experiment: Two-electrode voltage clamp, TRPV3-4M in oocytes; format: cell-based; conditions: RTx 100 nM, 2-APB 3 mM, room temperature, ±60 mV
T1 construct: expressed in transfected cells; host or cells: Xenopus laevis oocytes
T1 sequence (Q8K424 1-791 F522S/L557M/A560T/Q580E): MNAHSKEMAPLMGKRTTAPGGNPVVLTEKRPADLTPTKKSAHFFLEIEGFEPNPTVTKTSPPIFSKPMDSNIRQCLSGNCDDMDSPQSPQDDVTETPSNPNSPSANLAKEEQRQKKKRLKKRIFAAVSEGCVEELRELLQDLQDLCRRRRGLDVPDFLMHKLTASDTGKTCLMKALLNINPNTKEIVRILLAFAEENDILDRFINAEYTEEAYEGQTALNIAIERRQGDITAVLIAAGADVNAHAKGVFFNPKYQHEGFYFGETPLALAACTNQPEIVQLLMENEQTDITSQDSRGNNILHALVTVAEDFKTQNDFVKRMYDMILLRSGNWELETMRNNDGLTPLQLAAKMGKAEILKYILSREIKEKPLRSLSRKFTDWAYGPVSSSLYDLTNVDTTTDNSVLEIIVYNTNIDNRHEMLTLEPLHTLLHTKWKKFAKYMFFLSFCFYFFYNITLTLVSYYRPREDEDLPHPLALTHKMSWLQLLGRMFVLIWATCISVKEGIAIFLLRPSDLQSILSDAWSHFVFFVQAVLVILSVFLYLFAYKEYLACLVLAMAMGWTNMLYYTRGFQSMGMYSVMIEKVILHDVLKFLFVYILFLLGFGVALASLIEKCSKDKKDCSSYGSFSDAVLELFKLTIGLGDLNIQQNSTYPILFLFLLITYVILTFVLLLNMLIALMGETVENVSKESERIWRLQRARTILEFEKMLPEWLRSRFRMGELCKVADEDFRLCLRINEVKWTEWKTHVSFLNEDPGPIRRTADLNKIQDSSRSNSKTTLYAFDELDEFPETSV
Description: (§1) All channel constructs were expressed in Xenopus laevis oocytes and studied using the two-electrode voltage clamp technique (TEVC) following 1–4 days of incubation after cRNA injection. The animal care and experimental procedures were performed in accordance with the Guide for the Care and Use of Laboratory Animals and were approved by the Animal Care and Use Committee of the National Institute of Neurological Disorders and Stroke (Animal protocol number 1253–17). Oocytes were removed surgically and incubated with agitation for 1 hr in a solution containing (in mM) 82.5 NaCl, 2.5 KCl, 1 MgCl2, 5 HEPES, pH 7.6 (with NaOH), and collagenase (2 mg/ml; Worthington Biochemical, Lakewood, NJ). Defolliculated oocytes were injected with cRNA for each of the constructs and incubated at 17°C in a solution containing (in mM) 96 NaCl, 2 KCl, 1 MgCl2, 1.8 CaCl2, 5 HEPES, pH 7.6 (with NaOH), and gentamicin (50 μg/ml, GIBCO-BRL, Gaithersburg, MD). Oocyte membrane voltage was controlled using an OC-725C oocyte clamp (Warner Instruments, Hamden, CT). Data were filtered at 1–3 kHz and digitized at 20 kHz using pClamp software (Molecular Devices, Sunnyvale, CA) and a Digidata 1440A digitizer (Axon Instruments). Microelectrode resistances were 0.1–1 MΩ when filled with 3 M KCl. For recording TRP channel currents, the external recording solution contained (in mM) 100 KCl, 10 HEPES, pH 7.6 (with KOH). […]

[2] = system: TRPV3-6M + L596V, L599F, S613K, D618P, S620E, I644F, Q646E, P651K, L653V, I659L or T660A; experiment: Two-electrode voltage clamp, TRPV3-6M with individual pore mutations (no RTx response); format: cell-based, mouse; conditions: RTx 100 nM, 2-APB 3 mM, room temperature
Description: as §1

Structure (SMILES) | channel activation (current response) [1] | channel activation (current response) [2]
C=C(C)[C@]12C[C@@H](C)[C@@]34O[C@](Cc5ccccc5)(O[C@@H]1[C@@H]3C=C(COC(=O)Cc1ccc(O)c(OC)c1)C[C@]1(O)C(=O)C(C)=C[C@@H]41)O2 [RTx, resiniferatoxin] | not by 100 nM RTx | RTx-insensitive
NCCOB(c1ccccc1)c1ccccc1 [2-APB, 2-aminoethoxydiphenyl borate] | activated | still activated
